Consider 2 compounds from patent US9120814B2, “Compounds with embedded benzopyran motif for core structures and preparation method thereof” (SNU R&DB FOUNDATION, priority 2006, dated 2015).

For assay [1], the system named is prostate specific antigen (PSA) as a target protein of androgen receptor. In words: Western blot of PSA expression in LNCaP cells (FIG. 1). It is filed as cell-based. The settings on record: LNCaP androgen-dependent human prostate cancer cell line; compared with bicalutamide. Background: Immunoblotting shows a protein as a band on a membrane.
In assay [2] the test system is androgen receptor (AR) target gene. In words: RT-PCR of androgen receptor target gene mRNA (FIG. 2). It is filed as cell-based.
In the next assay the test system is Hela adenocarcinoma cell. In words: Cell viability, CCK-8 assay, Hela. It is filed as cell-based. The settings on record: Homo sapiens; Hela cells, 72 hr treatment; read-out: IC50 (after 72 hr treatment) Hela. On the procedure:
(§1) The human cancer cell line (A549 lung carcinoma cell, Hela adenocarcinoma cell, U266 myeloma cell) was obtained from American Type Culture Collection (Manassas, Va. USA) and maintained in complete medium [RPMI. 1640 supplemented with heat-inactivated 10% FBS (USP, Austin, Tex., USA) and with 1% antibiotic-antimycotic solution (USP, Austin, Tex., USA)]. The cells were maintained in a humidified atmosphere of 5% CO2 and 95% air at 37° C., and cultured in T75 Flask (Nalge Nune International, Naperville, Ind., USA).
(§2) Cell viability was measured by a cell counting kit (CCK-8 assay, Dojindo, Tokyo, Japan), and the experimental procedure is based on the manufacturer's manual. The cells were cultured into 96-well plates at a density of 2×10^4 cells/well for 24 hours, followed by the treatment of the compounds of the present invention at various concentrations. […] Louis, Mo., USA)) was added to each well, and plates were incubated for additional 2 hours at 37° C. The absorbance of each well at 450 nm was measured with a reference at 630 nm using a Bio-Tek model ELx800™ microplate reader (Bio-Tek Instruments, Inc., Winooski, Vt., USA). The percentage of cell viability was calculated by following Mathematical Equation 1. […]
(Tetrazolium dyes change colour on reduction, which living cells bring about.)

A further assay relates to A549 lung carcinoma cell. Briefly: Cell viability, CCK-8 assay, A549. It is filed as cell-based. The settings on record: Homo sapiens; A549 cells, 72 hr treatment; read-out: IC50 (after 72 hr treatment) A549. On the procedure: as §1, §2
Assay [3] addresses T1, RAR-related orphan receptor α (RORα) (Homo sapiens, UniProt P35398).
T1 sequence (P35398 1-523): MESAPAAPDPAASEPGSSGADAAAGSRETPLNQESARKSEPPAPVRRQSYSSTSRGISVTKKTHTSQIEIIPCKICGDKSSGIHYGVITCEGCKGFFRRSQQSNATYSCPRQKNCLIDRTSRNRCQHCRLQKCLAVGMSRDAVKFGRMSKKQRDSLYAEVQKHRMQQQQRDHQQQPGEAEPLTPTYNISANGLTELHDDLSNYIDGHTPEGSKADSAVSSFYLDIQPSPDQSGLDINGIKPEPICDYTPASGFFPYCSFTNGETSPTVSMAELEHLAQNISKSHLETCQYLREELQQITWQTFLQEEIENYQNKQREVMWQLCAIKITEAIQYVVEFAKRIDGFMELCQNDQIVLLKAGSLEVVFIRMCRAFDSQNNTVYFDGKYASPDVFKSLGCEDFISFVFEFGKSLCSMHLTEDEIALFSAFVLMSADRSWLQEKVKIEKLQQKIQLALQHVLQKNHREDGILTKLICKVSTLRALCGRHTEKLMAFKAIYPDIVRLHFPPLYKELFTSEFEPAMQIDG
Briefly: Agonistic effect on RORα.

The test system of a further assay is U266 myeloma cell. In words: Cell viability, CCK-8 assay, U266. It is filed as cell-based. The conditions noted are these: Homo sapiens, U-266; U266 cells, 72 hr treatment; read-out: IC50 (after 72 hr treatment) U266. On the procedure: as §1, §2

Consider `O=C1C2C3=C(c4ccc(O)cc4OC34CCCC4)[C@@H](O)[C@H](c3ccccc3)C2C(=O)N1Cc1ccccc1` (some centres unmarked) [Compound 96], for which the “anticancer activity based on the expression amount of PSA (western blot)” value in assay [1] is reported as “almost analogous to that of bicalutamide”. Moreover, in assay [2], the “mRNA amount of NK3 transcription factor related, locus 1 (NKX3-1)” value was “decreasing”; the “mRNA amount of kallikrein-related peptidase 2 (KLK2)” value is reported as “decreasing”; the “mRNA amount of prostate specific antigen (PSA)” value is reported as “decreasing”.

Usually IC50 stands for the point on the concentration scale where inhibition reaches its midpoint. On to `COc1ccc2c(c1O)OC(C)(C)C=C2c1ccc(Cl)cc1C` [Compound 95], for which the IC50 in the assay with Hela adenocarcinoma cell turned out to be 450 nM; in the assay on A549 lung carcinoma cell it was 380 nM; in the assay on U266 myeloma cell it was 460 nM. In assay [3], the “agonistic effect of activating RORα” value was “agonistic effect”.
